Measured values: publication PMC7127386 (Antiviral Research, 2020)
Entries after “also recorded” stand apart in the source; their conditions may differ. Where two headings read alike, the source gives them in different places.

Key:
SARS-CoV-2 virus [1] = type: cell-based
SARS-CoV-2 virus [2] = type: cell-based; remark: listed apart in the source
SARS-CoV-2 virus [3] = type: cell-based; details: read-out: Reduction in viral RNA copy (EC50)
SARS-CoV-2 virus [4] = type: cell-based; details: read-out: Reduction in infectious virus (EC50)

SMILES	CPE inhibition (lowest concentration of the compound with 100% CPE inhibition) (SARS-CoV-2 virus [1]) [µM]	Antiviral effect against SARS-CoV-2 virus in vitro (in words) (SARS-CoV-2 virus [2])	also measured
CN[C@H]1C(=O)N[C@@H]2Cc3ccc(cc3)Oc3cc4cc(c3O[C@@H]3O[C@H](C(=O)O)[C@@H](O)[C@H](O)[C@H]3NC(=O)CCCCCCCCC(C)C)Oc3ccc(cc3Cl)[C@@H](O)[C@@H]3NC(=O)[C@H](NC(=O)[C@@H]4NC(=O)[C@@H](NC2=O)c2cc(cc(O)c2Cl)Oc2cc1ccc2O)c1ccc(O)c(c1)-c1c(O[C@H]2O[C@H](CO)[C@@H](O)[C@H](O)[C@@H]2O)cc(O)cc1[C@@H](C(=O)NCCCN(C)C)NC3=O.Cl [Dalbavancin hydrochloride]	>100		
NC(=O)c1nc(F)c[nH]c1=O [Favipiravir]		no apparent antiviral effect; also recorded: did not inhibit viral replication	Inhibition of SARS-CoV-2 (in words) (SARS-CoV-2 virus [2]): no inhibition
Nc1nc(F)nc2c1ncn2[C@@H]1O[C@H](COP(=O)(O)O)[C@@H](O)[C@@H]1O [Fludarabine phosphate]		did not inhibit viral replication	
Nc1ncnc2c([C@@H]3N[C@H](CO)[C@@H](O)[C@H]3O)c[nH]c12 [Galidesivir]		did not inhibit viral replication	
CN[C@H](CC(C)C)C(=O)N[C@H]1C(=O)N[C@@H](CC(N)=O)C(=O)N[C@H]2C(=O)N[C@H]3C(=O)N[C@H](C(=O)N[C@H](C(=O)O)c4cc(O)cc(O)c4-c4cc3ccc4O)[C@H](O[C@H]3C[C@](C)(N)[C@@H](O)[C@H](C)O3)c3ccc(c(Cl)c3)Oc3cc2cc(c3O[C@@H]2O[C@H](CO)[C@@H](O)[C@H](O)[C@H]2O[C@H]2C[C@](C)(NCc3ccc(-c4ccc(Cl)cc4)cc3)[C@@H](O)[C@H](C)O2)Oc2ccc(cc2Cl)[C@H]1O.O=P(O)(O)O.O=P(O)(O)O [Oritavancin diphosphate]	>100		
CCC(CC)O[C@@H]1C=C(C(=O)O)C[C@H](N)[C@H]1NC(C)=O [Oseltamivir carboxylate]	>100	no apparent antiviral effect	EC50 (SARS-CoV-2 virus [3]): > 100 µM; EC50 (SARS-CoV-2 virus [4]): > 100 µM; CC50 (Vero E6 cells): > 100 µM
[N-]=[N+]=N[C@]1(CO)O[C@@H](n2ccc(N)nc2=O)[C@H](O)[C@@H]1O [R-1479]	>100	did not inhibit viral replication	CC50 (Vero E6 cells): > 100 µM
NC(=O)c1ncn([C@@H]2O[C@H](CO)[C@@H](O)[C@H]2O)n1 [Ribavirin]		no apparent antiviral effect; also recorded: did not inhibit viral replication	Inhibition of SARS-CoV-2 (in words) (SARS-CoV-2 virus [2]): no inhibition
C[C@H](Cn1cnc2c(N)ncnc21)OCP(=O)(O)O [Tenofovor]		did not inhibit viral replication	
